Measurements from patent US20260285849A1, “METHYLOPHIOPOGONONE A DERIVATIVE, AND PREPARATION AND USE THEREOF” (INSTITUTE OF MATERIA MEDICA, CHINESE ACADEMY OF MEDICAL …, priority 2022, published 2026).

Key:
H9C2 cardiomyocytes = test: Angiotensin II (Ang II)-induced cardiomyocyte hypertrophy model, crystal violet, cell surface area; type: cell-based, rat; conditions: for number of cardiomyocytes (decrease in cell number caused by AngII): 0.5 μM and 1 μM, 40 μM AngII 24 h; for surface area of a single cardiomyocyte, View 1 / surface area of a single cardiomyocyte, View 2 / surface area of a single cardiomyocyte, View 3 / surface area of a single cardiomyocyte, View 4 / surface area of a single cardiomyocyte, View 5 / Myocardial surface area: 40 μM Ang II 24 h; for surface area of a single cardiomyocyte, View 1: field of view 1; for surface area of a single cardiomyocyte, View 2: field of view 2; for surface area of a single cardiomyocyte, View 3: field of view 3; for surface area of a single cardiomyocyte, View 4: field of view 4; for surface area of a single cardiomyocyte, View 5: field of view 5; for Myocardial surface area: mean of 5 views
Description: Adjust the H9C2 cardiomyocytes in the logarithmic growth phase to a density of 1.2×10^5 cells/well and inoculate them into six-well plates. […] After culturing for 24 hours, the drug administration groups are added with 40 μM Ang II and the corresponding concentrations of drugs. The Ang II+diltiazem 10 μM group is added with 40 μM Ang II and 10 μM diltiazem. The Ang II model group is added with 40 μM Ang II and an equal volume of DMSO. The blank control group is added with an equal volume of DMSO. Then, continue culturing for 24 hours. Discard the culture medium, wash the cells 3 times with PBS. Add 1 mL of methanol to each well and fix the cells at −20° C. for 20 minutes, and then let them return to room temperature. After discarding the methanol, add 1 mL of 0.5% crystal violet staining solution to each well and stain for 10 minutes. Wash the cells with clean water and take pictures under an inverted microscope. Randomly select fields of view for photographing. Use Image J software to measure the sum of the surface areas of all cardiomyocytes in the field of view and count the number of cells in the field of view at the same time to obtain the surface area of each cardiomyocyte. The surface area of a single cardiomyocyte=the sum of the surface areas of all cardiomyocytes in the field of view/the number of cardiomyocytes in the field of view.

[1] = test system: mice with hypertensive heart disease induced by angiotensin II (AngII); test: AngII-induced hypertensive heart disease mouse model: serum BNP (ELISA); type: in vivo
Description: (§1) After male C57BL/6 mice were acclimated to the environment, they were randomly divided into 10 groups, namely the blank control group, the AngII model group, the AngII+telmisartan 10 mg/kg positive control group, the AngII+spironolactone 20 mg/kg positive control group, the AngII+Formula I (0.1, 0.5, 2 mg/kg) groups, and the AngII+Formula II (0.1, 0.5, 2 mg/kg) groups. The mice in the drug administration groups were intragastrically administered the corresponding doses of Formula I and Formula II compounds once a day at the same time. The mice in the positive control groups were intragastrically administered the corresponding doses of telmisartan and spironolactone once a day. The mice in the blank control group and the model group were given the same amount of solvent (0.5% CMC-Na solution). The administration volume was 10 mL/kg, and the administration was continuous for 14 days. From the 1st to the 13th day of drug administration, AngII modeling was carried out. The mice in the blank control group were subcutaneously injected with normal saline, and the mice in the other groups were subcutaneously injected with 1.44 mg/kg of AngII (modeling was carried out 2 h after drug administration), for a total of 13 times. Detection of myocardial hypertrophy/heart failure biomarkers: After the experiment, the animals were sacrificed by enucleation to obtain blood. The blood was left to stand at room temperature for 2 hours, and then centrifuged at 3500 rpm for 20 minutes to separate the serum. The content of serum BNP was determined according to the instructions of the ELISA kit.

[2] = test system: mice with hypertensive heart disease induced by angiotensin II (AngII); test: AngII-induced hypertensive heart disease mouse model: serum TNF-α (ELISA); type: in vivo
Description: as §1, with “serum inflammatory factors:” for “myocardial hypertrophy/heart failure biomarkers:”, “TNF-α” for “BNP”

[3] = test system: mice with hypertensive heart disease induced by angiotensin II (AngII); test: AngII-induced hypertensive heart disease mouse model: serum aldosterone (ALD) (ELISA); type: in vivo
Description: as §1, with “serum aldosterone (ALD) level:” for “myocardial hypertrophy/heart failure biomarkers:”, “ALD” for “BNP”

[4] = 0.1 mg/kg intragastric once a day 14 days
[5] = 0.5 mg/kg intragastric once a day 14 days
[6] = 2 mg/kg intragastric once a day 14 days
[7] = 20 mg/kg intragastric once a day 14 days
[8] = 10 mg/kg intragastric once a day 14 days

Cc1c(O)cc(O)c2c(=O)c(Cc3ccc4c(c3)OCO4)coc12 [Formula II, 3-(benzo[d][1,3]dioxol-5-ylmethyl)-5,7-dihydroxy-8-methyl-4H-chromen-4-one]
number of cardiomyocytes (decrease in cell number caused by AngII) (H9C2 cardiomyocytes; 0.1 μM): significantly improve the decrease in cell number caused by AngII | surface area of a single cardiomyocyte, View 1 (H9C2 cardiomyocytes; 0.1 μM): 346.49 μm^2 | surface area of a single cardiomyocyte, View 2 (H9C2 cardiomyocytes; 0.1 μM): 347.86 μm^2 | surface area of a single cardiomyocyte, View 3 (H9C2 cardiomyocytes; 0.1 μM): 326.61 μm^2 | surface area of a single cardiomyocyte, View 4 (H9C2 cardiomyocytes; 0.1 μM): 381.47 μm^2 | surface area of a single cardiomyocyte, View 5 (H9C2 cardiomyocytes; 0.1 μM): 353.63 μm^2 | Myocardial surface area (H9C2 cardiomyocytes; 0.1 μM): 351.21 ± 17.66^### μm^2 | surface area of a single cardiomyocyte, View 1 (H9C2 cardiomyocytes; 0.5 μM): 420.10 μm^2 | surface area of a single cardiomyocyte, View 2 (H9C2 cardiomyocytes; 0.5 μM): 338.84 μm^2 | surface area of a single cardiomyocyte, View 3 (H9C2 cardiomyocytes; 0.5 μM): 355 μm^2 | surface area of a single cardiomyocyte, View 4 (H9C2 cardiomyocytes; 0.5 μM): 334.83 μm^2 | surface area of a single cardiomyocyte, View 5 (H9C2 cardiomyocytes; 0.5 μM): 342.18 μm^2 | Myocardial surface area (H9C2 cardiomyocytes; 0.5 μM): 358.19 ± 31.68^### μm^2 | surface area of a single cardiomyocyte, View 1 (H9C2 cardiomyocytes; 1 μM): 365.93 μm^2 | surface area of a single cardiomyocyte, View 2 (H9C2 cardiomyocytes; 1 μM): 372.44 μm^2 | surface area of a single cardiomyocyte, View 3 (H9C2 cardiomyocytes; 1 μM): 366.76 μm^2 | surface area of a single cardiomyocyte, View 4 (H9C2 cardiomyocytes; 1 μM): 392.9 μm^2 | surface area of a single cardiomyocyte, View 5 (H9C2 cardiomyocytes; 1 μM): 373.9 μm^2 | Myocardial surface area (H9C2 cardiomyocytes; 1 μM): 374.39 ± 9.76^### μm^2 | BNP [1, 4]: 103.21 ± 16.09 pg/mL | BNP [1, 5]: 101.08 ± 9.09 pg/mL | BNP [1, 6]: 91.67 ± 15.39 pg/mL | TNF-α [2, 4]: 645.36 ± 87.50 ng/L | TNF-α [2, 5]: 671.09 ± 80.55 ng/L | TNF-α [2, 6]: 627.56 ± 98.89 ng/L | ALD [3, 4]: 186.44 ± 21.59 pg/mL | ALD [3, 5]: 177.28 ± 21.57 pg/mL | ALD [3, 6]: 185.89 ± 12.61 pg/mL

O=c1c(Cc2ccc3c(c2)OCO3)coc2cc(O)cc(O)c12 [Formula I]
number of cardiomyocytes (decrease in cell number caused by AngII) (H9C2 cardiomyocytes; 0.1 μM): significantly improve the decrease in cell number caused by AngII | surface area of a single cardiomyocyte, View 1 (H9C2 cardiomyocytes; 0.1 μM): 362.68 μm^2 | surface area of a single cardiomyocyte, View 2 (H9C2 cardiomyocytes; 0.1 μM): 351.69 μm^2 | surface area of a single cardiomyocyte, View 3 (H9C2 cardiomyocytes; 0.1 μM): 344.78 μm^2 | surface area of a single cardiomyocyte, View 4 (H9C2 cardiomyocytes; 0.1 μM): 338.55 μm^2 | surface area of a single cardiomyocyte, View 5 (H9C2 cardiomyocytes; 0.1 μM): 410.64 μm^2 | Myocardial surface area (H9C2 cardiomyocytes; 0.1 μM): 361.67 ± 25.76^### μm^2 | surface area of a single cardiomyocyte, View 1 (H9C2 cardiomyocytes; 0.5 μM): 404.40 μm^2 | surface area of a single cardiomyocyte, View 2 (H9C2 cardiomyocytes; 0.5 μM): 360.65 μm^2 | surface area of a single cardiomyocyte, View 3 (H9C2 cardiomyocytes; 0.5 μM): 322.34 μm^2 | surface area of a single cardiomyocyte, View 4 (H9C2 cardiomyocytes; 0.5 μM): 283.2 μm^2 | surface area of a single cardiomyocyte, View 5 (H9C2 cardiomyocytes; 0.5 μM): 334.96 μm^2 | Myocardial surface area (H9C2 cardiomyocytes; 0.5 μM): 341.11 ± 40.33^### μm^2 | surface area of a single cardiomyocyte, View 1 (H9C2 cardiomyocytes; 1 μM): 312.97 μm^2 | surface area of a single cardiomyocyte, View 2 (H9C2 cardiomyocytes; 1 μM): 300.38 μm^2 | surface area of a single cardiomyocyte, View 3 (H9C2 cardiomyocytes; 1 μM): 328.43 μm^2 | surface area of a single cardiomyocyte, View 4 (H9C2 cardiomyocytes; 1 μM): 331.13 μm^2 | surface area of a single cardiomyocyte, View 5 (H9C2 cardiomyocytes; 1 μM): 303.72 μm^2 | Myocardial surface area (H9C2 cardiomyocytes; 1 μM): 315.33 ± 12.53^### μm^2 | BNP [1, 4]: 112.93 ± 17.57 pg/mL | BNP [1, 5]: 117.59 ± 13.78 pg/mL | BNP [1, 6]: 102.97 ± 5.56 pg/mL | TNF-α [2, 4]: 706.64 ± 91.15 ng/L | TNF-α [2, 5]: 699.02 ± 55.58 ng/L | TNF-α [2, 6]: 634.24 ± 98.58 ng/L | ALD [3, 4]: 206.80 ± 16.10 pg/mL | ALD [3, 5]: 192.69 ± 14.38 pg/mL | ALD [3, 6]: 199.41 ± 31.27 pg/mL

CC(=O)S[C@@H]1CC2=CC(=O)CC[C@]2(C)[C@H]2CC[C@@]3(C)[C@@H](CC[C@@]34CCC(=O)O4)[C@H]12 [Spironolactone, reference compound]
BNP [1, 7]: 129.92 ± 15.60 pg/mL | TNF-α [2, 7]: 758.49 ± 72.35 ng/L | ALD [3, 7]: 209.03 ± 25.11 pg/mL

CCCc1nc2c(C)cc(-c3nc4ccccc4n3C)cc2n1Cc1ccc(-c2ccccc2C(=O)O)cc1 [Telmisartan, reference compound]
BNP [1, 8]: 96.84 ± 7.34 pg/mL | TNF-α [2, 8]: 616.87 ± 70.42 ng/L | ALD [3, 8]: 162.74 ± 7.38 pg/mL
